Assay results taken from the supplement of paper PMC10307832.

Experiments:
Assay in all cases: relative viability (nuclei count vs DMSO), 5 days (fraction); higher = more cells survive
[1] = compound: C1CNCCC1C2=CC(=NN2)C3=CC=NC=C3 + CC(=O)Nc1cccc(-n2c(=O)n(C3CC3)c(=O)c3c(Nc4ccc(I)cc4F)n(C)c(=O)c(C)c32)c1 [Trametinib] (partner 0.02 µM)
In short: (§1)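 Each reported value is a median over duplicate plates. It expresses relative viability: treated-well nuclei count divided by vehicle-well nuclei count. Lung cancer cell lines in 1536-well plates were dosed by pin tool a day after seeding, alone with one drug or with a fixed anchor-drug dose plus five library-drug doses (not always all listed) in √10 steps, and nuclei were counted after 5 days.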

[2] = compound: C1CNCCC1C2=CC(=NN2)C3=CC=NC=C3 + Nc1nc2[nH]cc(CCc3ccc(C(=O)N[C@@H](CCC(=O)O)C(=O)O)cc3)c2c(=O)[nH]1 [Pemetrexed] (partner 0.2 µM)
In short: as §1

Tanzisertib + Alpelisib = compound: O[C@H]1CC[C@H](Nc2ncc3nc(Nc4c(F)cc(F)cc4F)n([C@H]4CCOC4)c3n2)CC1 [Tanzisertib] + Cc1nc(NC(=O)N2CCC[C@H]2C(N)=O)sc1-c1ccnc(C(C)(C)C(F)(F)F)c1 [Alpelisib] (partner 2 µM)
In short: as §1

Tanzisertib + Decitabine = compound: O[C@H]1CC[C@H](Nc2ncc3nc(Nc4c(F)cc(F)cc4F)n([C@H]4CCOC4)c3n2)CC1 [Tanzisertib] + Nc1ncn([C@H]2C[C@H](O)[C@@H](CO)O2)c(=O)n1 [Decitabine] (partner 2 µM)
In short: as §1

Cell Line | relative viability ([1]; first compound 0.08 µM) | relative viability ([1]; first compound 0.8 µM) | relative viability ([1]; first compound 2.53 µM) | relative viability ([1]; first compound 8 µM) | relative viability ([2]; first compound 0.08 µM) | relative viability ([2]; first compound 0.8 µM) | relative viability ([2]; first compound 2.53 µM) | relative viability ([2]; first compound 8 µM) | relative viability (Tanzisertib + Alpelisib; first compound 0.08 µM) | relative viability (Tanzisertib + Alpelisib; first compound 0.253 µM) | relative viability (Tanzisertib + Alpelisib; first compound 0.8 µM) | relative viability (Tanzisertib + Alpelisib; first compound 2.53 µM) | relative viability (Tanzisertib + Alpelisib; first compound 8 µM) | relative viability (Tanzisertib + Decitabine; first compound 0.08 µM) | relative viability (Tanzisertib + Decitabine; first compound 0.253 µM) | relative viability (Tanzisertib + Decitabine; first compound 0.8 µM) | relative viability (Tanzisertib + Decitabine; first compound 2.53 µM) | relative viability (Tanzisertib + Decitabine; first compound 8 µM)
NCI-H1792 | 0.428 | 0.487 | 0.539 | 0.438 | 0.909 | 0.73 | 0.831 | 0.849 | 0.677 | 0.647 | 0.737 | 0.665 | 0.671 | 0.668 | 0.539 | 0.487 | 0.569 | 0.566
COR-L23 | 0.583 | 0.62 | 0.678 | 0.608 | 0.192 | 0.212 | 0.193 | 0.192 | 0.784 | 0.759 | 0.743 | 0.807 | 0.793 | 0.454 | 0.502 | 0.411 | 0.511 | 0.467
HOP-62 | 0.344 | 0.415 | 0.425 | 0.357 | 0.312 | 0.336 | 0.272 | 0.335 | 0.956 | 1.1 | 1.02 | 1.11 | 1.16 | 0.212 | 0.236 | 0.217 | 0.248 | 0.215
NCI-H1915 | 0.289 | 0.298 | 0.3 | 0.299 | 0.579 | 0.502 | 0.525 | 0.471 | 1.15 | 1.05 | 1.06 | 1.04 | 1.04 | 0.288 | 0.275 | 0.264 | 0.257 | 0.279
BEN | 0.769 | 0.936 | 1.05 | 1.02 | 0.788 | 0.638 | 0.793 | 0.933 | 0.978 | 1.04 | 1.08 | 0.955 | 1.01 | 0.707 | 0.766 | 0.782 | 0.702 | 0.57
NCI-H1437 | 0.54 | 0.536 | 0.679 | 0.639 | 0.334 | 0.312 | 0.363 | 0.303 | 0.998 | 1 | 0.964 | 0.958 | 0.722 | 0.622 | 0.572 | 0.606 | 0.629 | 0.533
EMC-BAC-2 |  | 0.946 | 0.994 | 0.991 | 0.464 | 0.448 | 0.435 | 0.439 | 0.78 | 0.754 | 0.725 | 0.688 | 0.688 | 1.05 | 0.947 | 0.957 | 0.96 | 0.937
NCI-H647 | 0.491 | 0.379 | 0.535 | 0.525 | 0.176 | 0.146 | 0.174 | 0.189 | 1.12 | 1.31 | 1.16 | 1.26 | 1.08 | 0.437 | 0.329 | 0.334 | 0.457 | 0.578
LXF-289 | 0.658 | 0.768 | 0.653 | 0.706 | 0.936 | 0.967 | 0.856 | 0.814 | 1.06 | 1.02 | 1.05 | 1.04 | 1.11 | 0.419 | 0.379 | 0.387 | 0.416 | 0.39
LOU-NH91 | 0.778 | 0.769 | 0.841 | 0.766 | 0.403 | 0.63 | 0.367 | 0.351 | 0.755 | 0.706 | 0.716 | 0.694 | 0.549 | 0.869 | 0.82 | 0.837 | 0.805 | 0.635
NCI-H23 | 0.372 |  | 0.444 | 0.371 | 0.719 |  | 0.808 | 0.818 | 0.63 | 0.617 | 0.705 | 0.747 | 0.718 | 0.3 | 0.301 | 0.32 | 0.282 | 0.374
NCI-H1993 | 0.512 | 0.597 | 0.509 | 0.536 | 0.607 | 0.342 | 0.535 | 0.689 | 0.661 | 0.663 | 0.524 | 0.693 | 0.699 | 0.723 | 0.732 | 0.589 | 0.438 | 0.539
HCC-827 | 0.524 | 0.5 | 0.599 | 0.601 | 0.222 | 0.238 | 0.132 | 0.262 | 1.08 | 0.97 | 0.946 | 0.895 | 0.391 | 0.338 | 0.372 | 0.257 | 0.367 | 0.207
NCI-H650 | 0.825 | 1.14 | 1.1 | 1.02 | 0.956 | 0.967 | 0.951 | 1.02 | 1.1 | 1.19 | 1.18 | 1.21 | 1.18 | 0.33 | 0.321 | 0.305 | 0.337 | 0.284
NCI-H838 | 0.518 | 0.494 | 0.589 | 0.512 | 0.24 | 0.259 | 0.248 | 0.284 | 1.02 | 1 | 0.92 | 0.965 | 0.973 | 0.455 | 0.468 | 0.459 | 0.483 | 0.481
RERF-LC-KJ | 0.837 | 0.83 | 0.966 | 0.858 | 0.464 | 0.493 | 0.516 | 0.463 | 0.819 | 0.754 | 0.918 | 0.777 | 0.719 | 0.75 | 0.771 | 0.705 | 0.688 | 0.628
NCI-H661 | 0.568 | 0.561 | 0.586 | 0.596 | 0.967 | 0.942 | 0.939 | 0.891 | 0.84 | 0.716 | 0.561 | 0.527 | 0.412 | 0.55 | 0.566 | 0.522 | 0.502 | 0.487
HCC-366 | 0.292 | 0.428 | 0.393 | 0.337 | 0.212 | 0.193 | 0.146 | 0.173 | 0.438 | 0.346 | 0.295 | 0.377 | 0.287 |  | 0.381 | 0.382 | 0.348 | 0.254
